What all share (type): functional
For one test, the system named is Staphylococcus aureus. Description: Antibacterial activity against Staphylococcus aureus ATCC 25923 assessed as inhibition of bacterial growth measured after 24 hrs by broth microdilution method.
The subject of the next test is Klebsiella pneumoniae. Description: Antibacterial activity against Klebsiella pneumoniae ATCC 13883 assessed as inhibition of bacterial growth measured after 24 hrs by broth microdilution method.
For a further test, the system named is Pseudomonas aeruginosa. Description: Antibacterial activity against Pseudomonas aeruginosa PAO1 assessed as inhibition of bacterial growth measured after 24 hrs by broth microdilution method.

≈ marks a conversion by molar mass, not a printed value. Bridge positions count the residues as written; N and C are the ends. Square brackets hold non-standard residues; d marks the D form. Peptide text beside a SMILES is read from it. S5 = C=CCCC[C@](C)(N)C(=O)O

For `CC[C@H](C)[C@H](NC(=O)CNC(=O)[C@H](CC(=O)O)NC(=O)[C@H](CCCNC(=N)N)NC(=O)[C@@H](NC(=O)[C@]1(C)CCC/C=C\CCC[C@](C)(NC(=O)[C@H](CCC(=O)O)NC(=O)[C@@H](NC(=O)[C@H](CCCCN)NC(=O)[C@H](CCCCN)NC(=O)[C@H](Cc2ccccc2)NC(=O)[C@H](CC(C)C)NC(=O)[C@H](CCCCN)NC(=O)[C@H](Cc2c[nH]c3ccccc23)NC(=O)[C@H](CCCCN)NC(C)=O)[C@@H](C)CC)C(=O)N[C@@H](C(C)C)C(=O)NCC(=O)N[C@@H](CCC(N)=O)C(=O)N1)[C@@H](C)CC)C(=O)N[C@H](C(=O)N[C@@H](CCCCN)C(=O)N[C@@H](C)C(=O)NCC(=O)N1CCC[C@H]1C(=O)N[C@@H](C)C(=O)N[C@H](C(=O)N[C@@H](C)C(=O)N[C@H](C(=O)N[C@H](C(=O)NCC(=O)N[C@@H](CCC(N)=O)C(=O)N[C@@H](C)C(=O)N[C@H](C(=O)N[C@@H](CCC(N)=O)C(=O)N[C@H](C(=O)N[C@@H](C)C(=O)N[C@@H](CCCCN)C(N)=O)[C@@H](C)CC)[C@@H](C)O)C(C)C)C(C)C)C(C)C)[C@@H](C)CC` (Ac-KWKLFKKIE[S5]VGQ[S5]IRDGIIKAGPAVAVVGQATQIAK-NH2; staple (Z) 10-14), the MIC in the test with Staphylococcus aureus, in the test on Klebsiella pneumoniae and in the test on Pseudomonas aeruginosa was above 100 µM each time.

As to `CC[C@H](C)[C@H](NC(=O)CNC(=O)[C@H](CC(=O)O)NC(=O)[C@H](CCCNC(=N)N)NC(=O)[C@@H](NC(=O)[C@H](CC(N)=O)NC(=O)[C@H](CCC(N)=O)NC(=O)CNC(=O)[C@@H](NC(=O)[C@]1(C)CCC/C=C\CCC[C@](C)(NC(=O)[C@H](Cc2ccccc2)NC(=O)[C@H](CC(C)C)NC(=O)[C@H](CCCCN)NC(=O)[C@H](Cc2c[nH]c3ccccc23)NC(=O)[C@H](CCCCN)NC(C)=O)C(=O)N[C@@H](CCCCN)C(=O)N[C@@H]([C@@H](C)CC)C(=O)N[C@@H](CCC(=O)O)C(=O)N1)C(C)C)[C@@H](C)CC)C(=O)N[C@H](C(=O)N[C@@H](CCCCN)C(=O)N[C@@H](C)C(=O)NCC(=O)N1CCC[C@H]1C(=O)N[C@@H](C)C(=O)N[C@H](C(=O)N[C@@H](C)C(=O)N[C@H](C(=O)N[C@H](C(=O)NCC(=O)N[C@@H](CCC(N)=O)C(=O)N[C@@H](C)C(=O)N[C@H](C(=O)N[C@@H](CCC(N)=O)C(=O)N[C@H](C(=O)N[C@@H](C)C(=O)N[C@@H](CCCCN)C(N)=O)[C@@H](C)CC)[C@@H](C)O)C(C)C)C(C)C)C(C)C)[C@@H](C)CC` (Ac-KWKLF[S5]KIE[S5]VGQNIRDGIIKAGPAVAVVGQATQIAK-NH2; staple (Z) 6-10), the MIC with Staphylococcus aureus, in the test with Klebsiella pneumoniae and in the test with Pseudomonas aeruginosa was above 100 µM throughout.

With `CC[C@H](C)[C@H](NC(=O)CNC(=O)[C@H](CC(=O)O)NC(=O)[C@H](CCCNC(=N)N)NC(=O)[C@@H](NC(=O)[C@H](CC(N)=O)NC(=O)[C@H](CCC(N)=O)NC(=O)CNC(=O)[C@@H](NC(=O)[C@H](CCCCN)NC(=O)[C@]1(C)CCC/C=C\CCC[C@](C)(NC(=O)[C@H](CC(C)C)NC(=O)[C@H](CCCCN)NC(=O)[C@H](Cc2c[nH]c3ccccc23)NC(=O)[C@H](CCCCN)NC(C)=O)C(=O)N[C@@H](CCCCN)C(=O)N[C@@H](CCCCN)C(=O)N[C@@H]([C@@H](C)CC)C(=O)N1)C(C)C)[C@@H](C)CC)C(=O)N[C@H](C(=O)N[C@@H](CCCCN)C(=O)N[C@@H](C)C(=O)NCC(=O)N1CCC[C@H]1C(=O)N[C@@H](C)C(=O)N[C@H](C(=O)N[C@@H](C)C(=O)N[C@H](C(=O)N[C@H](C(=O)NCC(=O)N[C@@H](CCC(N)=O)C(=O)N[C@@H](C)C(=O)N[C@H](C(=O)N[C@@H](CCC(N)=O)C(=O)N[C@H](C(=O)N[C@@H](C)C(=O)N[C@@H](CCCCN)C(N)=O)[C@@H](C)CC)[C@@H](C)O)C(C)C)C(C)C)C(C)C)[C@@H](C)CC` (Ac-KWKL[S5]KKI[S5]KVGQNIRDGIIKAGPAVAVVGQATQIAK-NH2; staple (Z) 5-9), the MIC with Staphylococcus aureus is 1.56 µM (≈ 6.27 µg/mL); with Klebsiella pneumoniae, 6.25 µM (≈ 25.1 µg/mL); with Pseudomonas aeruginosa, above 100 µM.

(Values after ChEMBL document CHEMBL6115030, “Systematic All-Hydrocarbon Stapling Analysis for Cecropin A Generates a Potent and Stable Antimicrobial Peptide” (J Med Chem, 2025).)
